What follows are cell lines tested with N#CC1(c2ccc(NC(=O)c3cccnc3NCc3ccncc3)cc2)CCCC1 [Apatinib] + COc1cccc2cc(-c3nc([C@H]4CC[C@H](C(=O)O)CC4)n4ncnc(N)c34)[nH]c12 [OSI-027] (partner 0.5 µM) (assay: relative viability (nuclei count vs DMSO), 5 days (fraction); higher = more cells survive). Conditions: first compound 8 µM.
In short: (§1)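 Nuclei were stained with Hoechst during a one-step fixation (final 0.05% Triton X-100, 1% formaldehyde, 1 ug/ml Hoechst) carried out 5 days after dosing, then counted on 4× images. The cells, lung cancer lines in 1536-well plates, had been dosed by pin tool the day after seeding with one drug alone or a fixed anchor-drug dose plus five library-drug doses (not always all listed) in √10 steps. Relative viability is the nuclei count in treated wells divided by that in vehicle wells, and each value is the median of duplicate plates.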
NCI-H2347 gave a relative viability of 0.282. For NCI-H2405, the relative viability was 0.626. In the case of NCI-H3122, the relative viability was 0.845.

These cell lines were tested with CN(C)C(=N)NC(=N)N [Metformin] + CS(=O)(=O)CCNCc1ccc(-c2ccc3ncnc(Nc4ccc(OCc5cccc(F)c5)c(Cl)c4)c3c2)o1 [Lapatinib] (partner 2 µM) in the same assay as above. Conditions: first compound 10 µM.
In short: as §1
LU99A showed a relative viability of 0.92. Work on LXF-289 yielded a relative viability of 0.812. With NCI-H23 the relative viability was 0.998. In the case of NCI-H322M, the relative viability was 0.589. Work on NCI-H358 yielded a relative viability of 0.409. In the case of NCI-H520, the relative viability was 0.849. In the case of NCI-H596, the relative viability was 1.18. NCI-H647 showed a relative viability of 1.04. With NCI-H650 the relative viability was 1.22. With NCI-H661 the relative viability was 0.58. In the case of NCI-H727, the relative viability was 0.863. NCI-H838 gave a relative viability of 1.13. Work on NCI-H1355 yielded a relative viability of 0.884. Work on NCI-H1437 yielded a relative viability of 0.868. In the case of NCI-H1563, the relative viability was 0.999. Cell Line NCI-H1651 has a relative viability of 0.877. In the case of NCI-H1666, the relative viability was 0.57. NCI-H1734 was tested, and the relative viability was 1.03. For NCI-H1755, the relative viability was 0.763. For NCI-H1944, the relative viability was 0.686. With NCI-H1975 the relative viability was 0.98. NCI-H1993 gave a relative viability of 0.761. With NCI-H2009 the relative viability was 0.574. NCI-H2085 showed a relative viability of 0.716. For NCI-H2087, the relative viability was 0.597. In the case of NCI-H2126, the relative viability was 0.678. For NCI-H2228, the relative viability was 1.46. With NCI-H2347 the relative viability was 0.582. NCI-H2405 gave a relative viability of 0.932. In the case of NCI-H3122, the relative viability was 0.871.

Same assay, conditions: first compound 31.62 µM
For LU99A, the relative viability was 0.904. In the case of LXF-289, the relative viability was 0.879. NCI-H23 gave a relative viability of 1.14. NCI-H322M showed a relative viability of 0.598. Cell Line NCI-H358 has a relative viability of 0.671. NCI-H520 was tested, and the relative viability was 1.07. NCI-H596 gave a relative viability of 1.22. With NCI-H647 the relative viability was 1.14. NCI-H650 gave a relative viability of 1.04. In the case of NCI-H661, the relative viability was 0.783. NCI-H727 was tested, and the relative viability was 0.917. Cell Line NCI-H838 has a relative viability of 0.987. In the case of NCI-H1355, the relative viability was 0.955. With NCI-H1437 the relative viability was 0.887. NCI-H1563 showed a relative viability of 0.912. With NCI-H1651 the relative viability was 0.81. NCI-H1666 showed a relative viability of 0.557. Work on NCI-H1734 yielded a relative viability of 1.04. Cell Line NCI-H1755 has a relative viability of 0.956. NCI-H1792 was tested, and the relative viability was 0.87. For NCI-H1915, the relative viability was 1.07. In the case of NCI-H1944, the relative viability was 0.961. NCI-H1975 gave a relative viability of 1.27. For NCI-H1993, the relative viability was 0.823. NCI-H2009 gave a relative viability of 0.98. Cell Line NCI-H2023 has a relative viability of 0.975. NCI-H2085 was tested, and the relative viability was 0.805. For NCI-H2087, the relative viability was 0.902. With NCI-H2126 the relative viability was 0.774. NCI-H2228 showed a relative viability of 1.25. NCI-H2347 showed a relative viability of 0.881. NCI-H2405 was tested, and the relative viability was 1.13. In the case of NCI-H3122, the relative viability was 0.872.

Same assay, conditions: first compound 100 µM
For LU99A, the relative viability was 0.837. With LXF-289 the relative viability was 0.879. Work on NCI-H23 yielded a relative viability of 1.05. NCI-H322M gave a relative viability of 0.688. For NCI-H358, the relative viability was 0.616. In the case of NCI-H520, the relative viability was 0.948. NCI-H596 gave a relative viability of 1.07. NCI-H647 gave a relative viability of 0.933. In the case of NCI-H650, the relative viability was 0.887. For NCI-H661, the relative viability was 0.811. NCI-H727 gave a relative viability of 0.615. Cell Line NCI-H838 has a relative viability of 0.918. Cell Line NCI-H1355 has a relative viability of 0.946. Work on NCI-H1437 yielded a relative viability of 0.619. In the case of NCI-H1563, the relative viability was 1.02. NCI-H1651 showed a relative viability of 0.822. Cell Line NCI-H1666 has a relative viability of 0.601. Cell Line NCI-H1734 has a relative viability of 1.09. Work on NCI-H1755 yielded a relative viability of 1.02. Cell Line NCI-H1792 has a relative viability of 1.03. Work on NCI-H1915 yielded a relative viability of 0.973. Cell Line NCI-H1944 has a relative viability of 0.931. Cell Line NCI-H1975 has a relative viability of 0.935. NCI-H1993 was tested, and the relative viability was 0.814. In the case of NCI-H2009, the relative viability was 1.01. Cell Line NCI-H2023 has a relative viability of 0.74. In the case of NCI-H2085, the relative viability was 0.801. For NCI-H2087, the relative viability was 1.02. Work on NCI-H2126 yielded a relative viability of 0.771. NCI-H2347 showed a relative viability of 1.04. NCI-H2405 showed a relative viability of 1.01. Cell Line NCI-H3122 has a relative viability of 0.89.

Same assay, conditions: first compound 316.23 µM
LU99A was tested, and the relative viability was 0.864. For LXF-289, the relative viability was 0.843. In the case of NCI-H23, the relative viability was 0.762. NCI-H322M gave a relative viability of 0.614. In the case of NCI-H358, the relative viability was 0.58. NCI-H520 was tested, and the relative viability was 0.768. For NCI-H596, the relative viability was 1.06. Cell Line NCI-H647 has a relative viability of 1.04. For NCI-H650, the relative viability was 0.799. With NCI-H661 the relative viability was 0.688. With NCI-H727 the relative viability was 0.728. Cell Line NCI-H838 has a relative viability of 0.951. Work on NCI-H1355 yielded a relative viability of 0.982. NCI-H1437 was tested, and the relative viability was 0.712. With NCI-H1563 the relative viability was 0.924. Work on NCI-H1651 yielded a relative viability of 0.749. In the case of NCI-H1666, the relative viability was 0.535. NCI-H1734 gave a relative viability of 0.991. For NCI-H1755, the relative viability was 0.929. For NCI-H1792, the relative viability was 0.795. Work on NCI-H1915 yielded a relative viability of 0.976. Cell Line NCI-H1944 has a relative viability of 0.751. NCI-H1975 showed a relative viability of 1.05. With NCI-H1993 the relative viability was 0.741. For NCI-H2009, the relative viability was 0.889. NCI-H2085 was tested, and the relative viability was 0.725. For NCI-H2087, the relative viability was 1.06. For NCI-H2126, the relative viability was 0.787. NCI-H2228 gave a relative viability of 0.974. With NCI-H2347 the relative viability was 0.832. NCI-H2405 gave a relative viability of 1.07. Cell Line NCI-H3122 has a relative viability of 0.846.

Same assay, conditions: first compound 1000 µM
LU99A gave a relative viability of 0.985. LXF-289 was tested, and the relative viability was 0.887. For NCI-H23, the relative viability was 1.11. NCI-H322M was tested, and the relative viability was 0.585. Cell Line NCI-H358 has a relative viability of 0.602. In the case of NCI-H520, the relative viability was 0.892. In the case of NCI-H596, the relative viability was 1.2. NCI-H647 showed a relative viability of 1.1. For NCI-H650, the relative viability was 0.942. NCI-H661 showed a relative viability of 0.57. NCI-H727 gave a relative viability of 0.884. Work on NCI-H838 yielded a relative viability of 0.888. Cell Line NCI-H1355 has a relative viability of 1.06. NCI-H1437 gave a relative viability of 0.808. In the case of NCI-H1563, the relative viability was 0.783. Cell Line NCI-H1651 has a relative viability of 0.865. NCI-H1666 was tested, and the relative viability was 0.67. For NCI-H1734, the relative viability was 1.14. Cell Line NCI-H1755 has a relative viability of 0.99. Work on NCI-H1792 yielded a relative viability of 0.864. NCI-H1915 showed a relative viability of 1. NCI-H1944 gave a relative viability of 0.886. NCI-H1975 showed a relative viability of 1.06. In the case of NCI-H1993, the relative viability was 0.804. NCI-H2009 showed a relative viability of 0.991. With NCI-H2023 the relative viability was 0.764. Work on NCI-H2085 yielded a relative viability of 0.868. NCI-H2087 gave a relative viability of 0.895. NCI-H2126 gave a relative viability of 0.749. Work on NCI-H2228 yielded a relative viability of 1.24. Cell Line NCI-H2347 has a relative viability of 1.

Source: the supplement of paper PMC10307832
